In patent publication US11932612B1, “6-(5-(3-fluorophenyl)-4-phenyl-4H-1,2,4-triazol-3-ylthio)hexanoic acid as an antimicrobial compound” (KING FAISAL UNIVERSITY, priority 2023, dated 2024):

Assays:
Bacillus cereus = experiment: Agar plate disc-diffusion, antibacterial inhibition zone; assay type: cell-based; conditions: nutrient agar, 37° C., 48 h, DMSO zone subtracted
Description: (§1) The agar plate disc-diffusion method was applied. […] The discs were then placed onto the surface of agar plates (nutrient agar for bacteria and Sabouraud's dextrose agar for fungi) seeded with the test organism. Each plate contained 15 mLof the agar medium, previously seeded with 0.2 mL of the broth culture of each organism pregrown for 18 h. The plates were incubated at 37° C. for 48 h, and 72 h for fungi. The inhibition zones was measured in mm. Discs impregnated with DMSO were used as a control, and its inhibition zone was subtracted from the tested compound actual inhibition zone.

Pseudomonas aeruginosa = experiment: as above; assay type: cell-based; conditions: nutrient agar, 37° C., 48 h, DMSO zone subtracted
Description: as §1

Staphylococcus aureus = experiment: as above; assay type: cell-based; conditions: nutrient agar, 37° C., 48 h, DMSO zone subtracted
Description: as §1

Escherichia coli = experiment: as above; assay type: cell-based; conditions: nutrient agar, 37° C., 48 h, DMSO zone subtracted
Description: as §1

Aspergillus flavus = experiment: Agar plate disc-diffusion, antifungal inhibition zone; assay type: cell-based; conditions: Sabouraud's dextrose agar, 37° C., 72 h, DMSO zone subtracted
Description: as §1

[1] = test system: Chrysosporium keratinophilum; experiment: as above; assay type: cell-based; conditions: Sabouraud's dextrose agar, 37° C., 72 h, DMSO zone subtracted
Description: as §1

[2] = A = concentration of comp. = 10,000 μL
[3] = B = concentration of comp. = 30,000 μL
[4] = C = concentration of comp. = 50,000 μL

melting point: 164 °C
SMILES: O=C(O)CCCCCSc1nnc(-c2cccc(F)c2)n1-c1ccccc1 [III, 6-(5-(3-fluorophenyl)-4-phenyl-4H-1,2,4-triazol-3-ylthio)hexanoic acid]
inhibition zone, Bacillus Cereus (Bacillus cereus; [2]): 26 mm
inhibition zone, Bacillus Cereus (Bacillus cereus; [3]): 30 mm
inhibition zone, Bacillus Cereus (Bacillus cereus; [4]): 41 mm
inhibition zone, Pseudomonas aeruginosa (Pseudomonas aeruginosa; [2]): 24 mm
inhibition zone, Pseudomonas aeruginosa (Pseudomonas aeruginosa; [3]): 26 mm
inhibition zone, Pseudomonas aeruginosa (Pseudomonas aeruginosa; [4]): 45 mm
inhibition zone, Staphylococcus aureus (Staphylococcus aureus; [2]): 22 mm
inhibition zone, Staphylococcus aureus (Staphylococcus aureus; [3]): 25 mm
inhibition zone, Staphylococcus aureus (Staphylococcus aureus; [4]): 30 mm
inhibition zone, Escherichia coli (Escherichia coli; [2]): 27 mm
inhibition zone, Escherichia coli (Escherichia coli; [3]): 34 mm
inhibition zone, Escherichia coli (Escherichia coli; [4]): 56 mm
inhibition zone, Aspergillus flavus (Aspergillus flavus; [2]): 21 mm
inhibition zone, Aspergillus flavus (Aspergillus flavus; [3]): 27 mm
inhibition zone, Aspergillus flavus (Aspergillus flavus; [4]): 37 mm
inhibition zone, Chrysosporium keratinophilum [1, 2]: 25 mm
inhibition zone, Chrysosporium keratinophilum [1, 3]: 28 mm
inhibition zone, Chrysosporium keratinophilum [1, 4]: 46 mm
